The record followed here is the OligoGym collection.

After the bases stand the sugars from the 5' end (letter, count) and the backbone: PS all phosphorothioate, else s phosphorothioate and o phosphodiester by linkage. Methylation of C is not given here. e = 2'-O-(2-methoxyethyl) (MOE); k = constrained ethyl (cEt); d = 2'-deoxy (DNA); m = 2'-O-methyl

This data set addresses HSD17B13. To be noted: ASO, HepaRG.

Sequence “GTAACGGTGATCAAAT (sugars k3 d1 m1 d8 k3, PS)” came in with a target mRNA inhibition (1 µM) of 21%.
Where the note is “1 µM”, AGGTATGTCATACTTC (sugars k3 d10 k3, PS) gave a target mRNA inhibition of 5%.
Turning to “ACTTGATCTCTTAGCT (sugars k3 d1 m1 d8 k3, PS)”, the target mRNA inhibition (1 µM) came out at 39%.
On the same count and under the same terms, for CTTCACCTGATTTAGA (sugars k3 d10 k3, PS) the value was 7%; for GCTCTAATGTTTCTTG (sugars k3 d10 k3, PS), 62%.
Regarding TTCTATGCAAGCCTTC (sugars k3 d10 k3, PS), the target mRNA inhibition (1 µM) was determined as 51%.
Sequence AAACATGGATGTTAGG (sugars k3 d10 k3, PS) showed a target mRNA inhibition (1 µM) of 56%.
“AAGAGTCAGTATCCTC (sugars k3 d1 m1 d8 k3, PS)” returned a target mRNA inhibition (1 µM) of 55%.
In turn, ATCAGTTTTCCTCATG (sugars k3 d10 k3, PS) returned a target mRNA inhibition (1 µM) of 48%.
Regarding CCTAATAACTACATGA (sugars k3 d10 k3, PS), where the note is “1 µM”, the target mRNA inhibition was 3%.
Consider GACCAAGTAGCTTACA (sugars k3 d10 k3, PS), for which, where the note is “1 µM”, the target mRNA inhibition amounted to 28%.
The sequence “TTGCACCGTTTTGGGC (sugars k3 d9 k3 e1, PS)” came in with a target mRNA inhibition (1 µM) of 50%.
As to “TAGTGCCAAACCAATG (sugars kkdddddddddkekek, PS)”, the target mRNA inhibition (0.02 µM) is 11%; the target mRNA inhibition (0.078 µM) amounted to 18%; the target mRNA inhibition (0.313 µM) is 27%; the target mRNA inhibition (1 µM) worked out at 66%; the target mRNA inhibition (1.25 µM) was 53%; the target mRNA inhibition (5 µM) was found to be 57%.
Sequence “GCTGCTAGTGCCAAAC (sugars k3 d9 k3 e1, PS)” showed a target mRNA inhibition (1 µM) of 62%.
Sequence “CTGTGTTAGCTTTAAT (sugars k3 d9 k3 e1, PS)” yielded a target mRNA inhibition (1 µM) of 50%.
Same read-out and setting: for “GTCTTAAACCTTCCCT (sugars kkdddddddddkekek, PS)” the value was 28%.
CAACAGTTTAGATTGC (sugars k3 d10 k3, PS) yielded a target mRNA inhibition (1 µM) of 66%.
Same read-out and setting: the figure for CCAATATGCTCTGTCG (sugars k3 d10 k3, PS) is 65%; for TTCGGCACTCAGCTGC (sugars k3 d10 k3, PS) it is 41%; for TTGTGTAGTCCTAGGG (sugars k3 d10 k3, PS) it is 64%.
Where the note is “1 µM”, “GATTAAGCAGAATTGT (sugars k3 d1 m1 d8 k3, PS)” yielded a target mRNA inhibition of 28%.
Consider ATACTAATGTCCAAGG (sugars k3 d10 k3, PS), for which the target mRNA inhibition runs as follows: (0.02 µM) 12%; (0.078 µM) 43%; (0.313 µM) 94%; (1 µM) 89%; (1.25 µM) 84%.
Turning to TTTAGGGCAAACCTTG (sugars k3 d10 k3, PS), under “1 µM”, the target mRNA inhibition stood at 67%.
Under “1 µM”, TTCCAAATCAGGTAGT (sugars k3 d10 k3, PS) displayed a target mRNA inhibition of 12%.
For “AGTGCATCTTAAGATA (sugars k3 d9 k3 e1, PS)”, the target mRNA inhibition (1 µM) is 12%.
With AAGACATTCTAGCCTG (sugars k3 d10 k3, PS), the target mRNA inhibition (1 µM) amounted to 63%.
Where the note is “1 µM”, “TGATACACCAATGCAG (sugars k3 d9 k3 e1, PS)” gave a target mRNA inhibition of 58%.
“GCAGTTATTAGAAGTC (sugars k3 d9 k3 e1, PS)”: the target mRNA inhibition (1 µM) worked out at 67%.
TGAAATTGATACACCA (sugars k3 d10 k3, PS) gave a target mRNA inhibition (1 µM) of 58%.
The same measure, in the same setting: the figure for “CTGTGTTAGCTTTAAT (sugars k3 d1 m1 d8 k3, PS)” is 41%; for AAAGTTAATAGGACTA (sugars k3 d10 k3, PS) it is 12%; for ACTGCTGCTAGTGCCA (sugars k3 d10 k3, PS) it is 47%.
Sequence CCTAGTTTTCGGCACT (sugars k3 d10 k3, PS) displayed a target mRNA inhibition (1 µM) of 62%.
ACAATACAGGATAGAG (sugars k3 d10 k3, PS): the target mRNA inhibition (1 µM) turned out to be 23%.
For the sequence “GATTGGAATGCTACTT (sugars kkdddddddddkekek, PS)”, the target mRNA inhibition (1 µM) came out at 53%.
Take TCTCAGAGTTCAGGCA (sugars k3 d10 k3, PS): for the setting “1 µM”, the target mRNA inhibition was found to be 54%.
As to “TGCTGCATTAATGCCA (sugars kkdddddddddkekek, PS)”, the target mRNA inhibition (1 µM) turned out to be 30%.
On to “TCTTAAGATACCCAGG (sugars k3 d9 k3 e1, PS)”, for which the target mRNA inhibition (1 µM) came out at 48%.
In turn, GAAATTCACCTTGACT (sugars k3 d10 k3, PS) had a target mRNA inhibition (1 µM) of 41%.
“ATATTCTGTGGCATGG (sugars kkdddddddddkekek, PS)”: the target mRNA inhibition (1 µM) worked out at 43%.
In turn, TACTTACCAATATGGG (sugars k3 d10 k3, PS) returned a target mRNA inhibition (1 µM) of 13%.
Consider “ATATGTCCAGGTTGAG (sugars k3 d1 m1 d8 k3, PS)”, for which the target mRNA inhibition (1 µM) came out at 48%.
As for “GCTTUTGTCCACCTTT (sugars k3 d1 m1 d8 k3, PS)”, the target mRNA inhibition is, setting by setting: (0.02 µM) 0%; (0.078 µM) 0%; (0.313 µM) 13%; (1 µM) 75%; (1.25 µM) 70%; (5 µM) 89%.
“GCACCGTTTTGGGCTA (sugars kkdddddddddkekek, PS)”: the target mRNA inhibition (1 µM) was 49%.
With CCTCATTTAGCAGCTT (sugars k3 d10 k3, PS), the target mRNA inhibition (0.02 µM) was found to be 14%; the target mRNA inhibition (0.078 µM) was 34%; the target mRNA inhibition (0.313 µM) was 54%; the target mRNA inhibition (1 µM) amounted to 81%; the target mRNA inhibition (1.25 µM) is 78%; the target mRNA inhibition (5 µM) came out at 88%.
Sequence “CCTGTGTTAGCTTTAA (sugars k3 d9 k3 e1, PS)” had a target mRNA inhibition (1 µM) of 66%.
For the setting “1 µM”, “GCTGTAAGAGTCAGTA (sugars kkdddddddddkekek, PS)” had a target mRNA inhibition of 42%.
Take CGTTTATCATATGCTA (sugars k3 d10 k3, PS): the target mRNA inhibition runs as follows: (0.02 µM) 9%; (0.078 µM) 29%; (0.313 µM) 57%; (1 µM) 88%; (1.25 µM) 77%; (5 µM) 86%.
In turn, ACTCTATAATAAGGTA (sugars k3 d10 k3, PS) gave a target mRNA inhibition (1 µM) of 42%.
Still for that read-out and setting: the figure for AAGAATAGGAGAGTCT (sugars k3 d10 k3, PS) is 70%.
Turning to TGTATAGCTGCATTTC (sugars k3 d10 k3, PS), the target mRNA inhibition (1 µM) came out at 37%.
Still for that read-out and setting: for AGATAAAGCTGCCTGC (sugars k3 d10 k3, PS) the value was 48%; for TTAGTACCAAGACACT (sugars k3 d10 k3, PS), 41%.
With GTTCATTCGAATTTCT (sugars k3 d10 k3, PS), the target mRNA inhibition was 0% (0.02 µM); 19% (0.078 µM); 60% (0.313 µM); 76% (1 µM); 87% (1.25 µM); 88% (5 µM).
Where the note is “1 µM”, “TTATGTGATTGAGTTC (sugars kkdddddddddkekek, PS)” gave a target mRNA inhibition of 21%.
For the setting “1 µM”, GAATCAAATAGATCCT (sugars k3 d10 k3, PS) returned a target mRNA inhibition of 46%.
For “GACTGCTGCTAGTGCC (sugars kkdddddddddkekek, PS)”, where the note is “1 µM”, the target mRNA inhibition turned out to be 35%.
Regarding “TGTCCACCTTTAAATG (sugars k3 d9 k3 e1, PS)”, where the note is “1 µM”, the target mRNA inhibition is 28%.
TAAGCTGAGAGTTCTA (sugars k3 d10 k3, PS) showed a target mRNA inhibition (1 µM) of 64%.
Consider GATTAAGCAGAATTGT (sugars k3 d10 k3, PS), for which the target mRNA inhibition (1 µM) was 37%.
Take ATATTGAGGCACTGGA (sugars k3 d10 k3, PS): the target mRNA inhibition (1 µM) is 53%.
In turn, TGCTGCTAGTGCCAAA (sugars k3 d10 k3, PS) yielded a target mRNA inhibition (1 µM) of 58%.
The sequence “TTAAGATACCCAGGTT (sugars k3 d9 k3 e1, PS)” showed a target mRNA inhibition (1 µM) of 51%.
“CTTAAACCTTCCCTGT (sugars kkdddddddddkekek, PS)”: the target mRNA inhibition (1 µM) was found to be 36%.
Where the note is “1 µM”, CTCTATTGGGCCAGGC (sugars k3 d10 k3, PS) returned a target mRNA inhibition of 46%.
Consider “CTATAGTAATCACAAG (sugars k3 d9 k3 e1, PS)”, for which the target mRNA inhibition (1 µM) was 53%.
For the setting “1 µM”, “TCTCTTAGCTGTGCAC (sugars kkdddddddddkekek, PS)” displayed a target mRNA inhibition of 36%.
Consider TCTCCAATACAGGCCA (sugars k3 d10 k3, PS), for which, for the setting “1 µM”, the target mRNA inhibition worked out at 21%.
Regarding “GTATAGTTATCTTCTC (sugars kkdddddddddkekek, PS)”, the target mRNA inhibition (1 µM) came out at 49%.
The same measure, in the same setting: for “ATGTAATAGCCAGTAC (sugars kkdddddddddkekek, PS)” the value was 47%; for “TATGTGATTGAGTTCT (sugars kkdddddddddkekek, PS)”, 23%; for “ATAGTCCATGCAAAAG (sugars k3 d9 k3 e1, PS)”, 29%.
Regarding GTCTACCTCTAAGTTA (sugars k3 d10 k3, PS), the target mRNA inhibition (1 µM) is 3%.
In turn, “GTTATTCTCTTGACAA (sugars k3 d9 k3 e1, PS)” returned a target mRNA inhibition (1 µM) of 35%.
Regarding TAGTCTTCAGCAAAGT (sugars k3 d10 k3, PS), the target mRNA inhibition (1 µM) worked out at 49%.
GTATTGAGATGACAGT (sugars k3 d10 k3, PS): the target mRNA inhibition (0.02 µM) was 0%; the target mRNA inhibition (0.078 µM) is 0%; the target mRNA inhibition (0.313 µM) amounted to 3%; the target mRNA inhibition (1 µM) was determined as 68%; the target mRNA inhibition (1.25 µM) came out at 47%; the target mRNA inhibition (5 µM) is 73%.
Where the note is “1 µM”, GTACACGAAGCCTGAA (sugars k3 d10 k3, PS) displayed a target mRNA inhibition of 42%.
Still for that read-out and setting: the figure for GTCTCCAATACAGGCC (sugars k3 d10 k3, PS) is 47%; for TACCAAACTTGCCCAT (sugars k3 d10 k3, PS) it is 33%.
Where the note is “1 µM”, TTTAGGATTAATTCCC (sugars k3 d10 k3, PS) returned a target mRNA inhibition of 16%.
Consider GATTAGTCTTGATGTA (sugars k3 d10 k3, PS), for which the target mRNA inhibition (1 µM) turned out to be 65%.
